How the values were obtained:
[1] = target: T1, KRAS^G12C/C118A (Homo sapiens, UniProt P01116, C118A/G12C); test: SOS1-catalyzed coupled nucleotide exchange assay (Alpha); assay type: biochemical
T1 construct: Recombinant His-tagged human KRAS^G12C/C118A (1-169); made in house; host or cells: Escherichia coli (KRAS, c-RAF); Trichoplusia ni (SOS1)
Description: (§1) A cysteine-light mutant construct was used for co-crystallization studies based on the work of Ostrem et al^15.
(§2) The inhibition of the SOS1-catalyzed nucleotide exchange activity of KRAS^G12C/C118A or KRAS^C118A was measured using Alpha (Amplified Luminescent Proximity Homogeneous Assay) technology. […] For all subsequent steps, DTT was added to the reaction buffer at a final concentration of 1 mM. […] Finally, c-RAF RBD (50 nM final), Alpha glutathione donor beads (PerkinElmer; 20 μg/mL final), and AlphaLISA® nickel chelate acceptor beads (PerkinElmer; 20 μg/mL final), all diluted in DTT-reaction buffer, were added. The reaction mixture was incubated at RT for 5 min, and then the plates were read on an EnVision® Multilabel Reader using the AlphaScreen protocol. […] Signal intensity corresponded with the association of c-RAF RBD with GTP-bound KRAS^G12C/C118A or KRAS^C118A and was normalized to DMSO control.

[2] = target: T2, KRAS^C118A (Homo sapiens, UniProt P01116, C118A); test: as above; assay type: biochemical; details: wildtype at position 12
T2 construct: His-tagged human KRAS^C118A (1-169); made in house; host or cells: Escherichia coli (KRAS, c-RAF); Trichoplusia ni (SOS1)
T2 sequence (P01116 1-169 isoform P01116-2 C118A): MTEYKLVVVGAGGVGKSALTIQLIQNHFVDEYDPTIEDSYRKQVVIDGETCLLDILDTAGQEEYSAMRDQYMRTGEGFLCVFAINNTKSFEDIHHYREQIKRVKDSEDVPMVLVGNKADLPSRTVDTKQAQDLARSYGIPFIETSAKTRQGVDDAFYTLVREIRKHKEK
Description: as §1, §2

[3] = tested on: immune cells in CT-26 KRAS p.G12C tumors; test: Tumor immunophenotyping by flow cytometry; assay type: in vivo, mouse; details: after 4 days of treatment
[4] = tested on: ERK1/2 phosphorylation in CT-26 KRAS p.G12C tumors; test: Tumor pharmacodynamic assay (p-ERK, MSD immunoassay); details: MEKi 10 mg/kg single oral dose; 2 hours
[5] = tested on: MIA PaCa-2 (pancreas); test: In vitro two-way combination matrix, growth inhibition, Loewe synergy score; assay type: cell-based, human
[6] = target: KRAS^G12C (Homo sapiens, UniProt P01116, G12C); test: Cellular kinetics from time- and concentration-dependence of p-ERK inhibition; assay type: cell-based; details: NCI-H358 cells
KRAS^G12C, sequence (P01116 1-188 isoform P01116-2 G12C): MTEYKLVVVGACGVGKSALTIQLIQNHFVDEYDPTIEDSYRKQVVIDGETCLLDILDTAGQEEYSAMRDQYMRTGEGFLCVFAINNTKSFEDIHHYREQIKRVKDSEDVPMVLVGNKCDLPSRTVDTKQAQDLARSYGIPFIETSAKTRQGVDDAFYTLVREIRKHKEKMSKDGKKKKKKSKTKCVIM
Description: To provide an alternative estimate of the rate of GTP-hydrolysis by KRAS^G12C, a SHP2 inhibitor was employed to eliminate all upstream signaling to KRAS.
To determine the kinetic values of covalent inhibitor-KRAS^G12C adduct formation in cells, basal ERK1/2 phosphorylation levels were measured following treatment with various inhibitor concentrations at various incubation times exactly as described above, and % activity values were used for the kinetic calculations.

[7] = tested on: NCI-H358 tumors; test: Tumor xenograft efficacy study, single agent and combinations; assay type: in vivo, mouse; details: AMG 510 10 or 30 mg/kg QD oral; carboplatin 50 or 100 mg/kg IP 1x/week

T1 sequence (P01116 1-169 isoform P01116-2 G12C/C118A): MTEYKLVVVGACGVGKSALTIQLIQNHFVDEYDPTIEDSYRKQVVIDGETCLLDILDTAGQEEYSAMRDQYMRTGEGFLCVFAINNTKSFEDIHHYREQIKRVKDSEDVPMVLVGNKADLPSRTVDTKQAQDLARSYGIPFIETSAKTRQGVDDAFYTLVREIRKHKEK

Question: Which “inhibition of KRAS^G12C/C118A nucleotide exchange” value [1] does the source give for `CCC(=O)N1CCN(c2nc(=O)n(-c3c(C)ccnc3C(C)C)c3nc(-c4c(O)cccc4F)c(F)cc23)[C@@H](C)C1` (atropisomer, axis not shown; (M)) [non-reactive analog of AMG 510, (M)-6-Fluoro-7-(2-fluoro-6-hydroxyphenyl)-1-(4-methyl-2-(2-propanyl)-3-pyridinyl)-4-((2S)-2-methyl-4-propanoyl-1-piperazinyl)pyrido[2,3-d]pyrimidin-2(1H)-one] here?
Answer: The value was “minimal activity”.

Question: What about the “inhibition of KRAS^C118A nucleotide exchange” value [2] of the same compound?
Answer: The value was “minimal activity”.

Question: `O=C(NOC[C@H](O)CO)c1ccc(F)c(F)c1Nc1ccc(I)cc1F` [MEKi, N-(((2R)-2,3-dihydroxypropyl)oxy)-3,4-difluoro-2-((2-fluoro-4-iodophenyl)amino)benzamide] was tested. Which “PD-1 expression on CD8+ T cells” value [3] did it give?
Answer: Its value is “moderately increased”.

Question: What about the “T cell infiltration of tumors” value [3] of the same compound?
Answer: The value was “did not affect numbers of infiltrating CD8+ T cells”.

Question: And the “infiltration of macrophages and dendritic cells” value [3]?
Answer: The value was “not observed”.

Question: What about the “MAPK signaling in tumors” value [4] of the same compound?
Answer: The value was “blocked MAPK signaling downstream of RAS”.

Question: What does the source list for `Cc1nc(N2CCC3(CC2)CO[C@@H](C)[C@H]3N)c(CO)nc1-c1cccc(Cl)c1Cl` [RMC-4550]?
Answer: single agent activity [5]: lack of single agent activity; cellular GTP hydrolysis rate from p-ERK inhibition by SHP2 inhibitor [6]: 0.00094 s⁻¹

Question: Which “tumor growth, carboplatin combination study” value [7] does the source give for `N.N.O=C([O-])C1(C(=O)[O-])CCC1.[Pt+2]` [carboplatin] here?
Answer: Its value is “significant tumor growth inhibition”.

Question: For `C#Cc1cccc(Nc2ncnc3cc(OCCOC)c(OCCOC)cc23)c1` [erlotinib], which “single agent activity” value [5] is on record?
Answer: Its value is “lack of erlotinib activity”.

From US12582657B2, “Combination therapy including a KRAS G12C inhibitor and one or more additional pharmaceutically active agents for the treatment of cancers” (Amgen Inc., priority 2018, dated 2026)
